Data as given in article PMC10761647, “β-carboline derivative Z86 attenuates colorectal cancer cell proliferation and migration by directly targeting PI3K” (Natural Products and Bioprospecting, 2024).

Target: T1, PI3Kα (Homo sapiens, UniProt P42336)
T1 construct: gene PIK3CA
Assay: PI3-Kinase Activity ELISA (PIP3 production) with purified PI3Kα; supported by CETSA and DARTS in HCT116 and SW480 cells/lysates
Assay type: biochemical

T1 sequence (P42336 whole entry): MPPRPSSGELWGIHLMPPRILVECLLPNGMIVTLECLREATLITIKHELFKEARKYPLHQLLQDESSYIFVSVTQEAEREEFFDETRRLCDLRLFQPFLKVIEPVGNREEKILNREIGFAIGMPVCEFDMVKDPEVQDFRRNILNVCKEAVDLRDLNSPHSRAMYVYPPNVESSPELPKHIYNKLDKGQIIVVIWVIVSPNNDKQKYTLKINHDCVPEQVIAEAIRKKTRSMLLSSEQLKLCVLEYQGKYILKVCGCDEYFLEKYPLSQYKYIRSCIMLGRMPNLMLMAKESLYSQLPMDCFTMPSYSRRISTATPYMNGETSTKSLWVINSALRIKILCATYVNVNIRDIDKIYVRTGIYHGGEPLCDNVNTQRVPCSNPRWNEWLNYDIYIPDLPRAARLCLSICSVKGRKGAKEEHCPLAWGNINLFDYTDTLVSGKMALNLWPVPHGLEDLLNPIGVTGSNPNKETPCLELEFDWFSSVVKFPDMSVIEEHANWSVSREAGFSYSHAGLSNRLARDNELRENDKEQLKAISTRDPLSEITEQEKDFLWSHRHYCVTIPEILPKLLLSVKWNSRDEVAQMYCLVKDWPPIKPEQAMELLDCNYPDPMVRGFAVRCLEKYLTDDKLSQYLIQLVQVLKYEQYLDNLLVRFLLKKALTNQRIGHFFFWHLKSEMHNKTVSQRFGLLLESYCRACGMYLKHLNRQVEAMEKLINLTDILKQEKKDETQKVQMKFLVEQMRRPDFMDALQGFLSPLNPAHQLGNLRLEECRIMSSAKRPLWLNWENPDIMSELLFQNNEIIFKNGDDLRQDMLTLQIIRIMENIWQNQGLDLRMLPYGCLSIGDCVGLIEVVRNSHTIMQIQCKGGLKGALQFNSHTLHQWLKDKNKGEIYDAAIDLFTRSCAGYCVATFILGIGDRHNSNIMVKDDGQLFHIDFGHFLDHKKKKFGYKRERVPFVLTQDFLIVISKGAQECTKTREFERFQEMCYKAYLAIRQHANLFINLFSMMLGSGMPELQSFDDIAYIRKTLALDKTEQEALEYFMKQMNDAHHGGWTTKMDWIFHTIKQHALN
T1 sequence (P27986 2-724 partner): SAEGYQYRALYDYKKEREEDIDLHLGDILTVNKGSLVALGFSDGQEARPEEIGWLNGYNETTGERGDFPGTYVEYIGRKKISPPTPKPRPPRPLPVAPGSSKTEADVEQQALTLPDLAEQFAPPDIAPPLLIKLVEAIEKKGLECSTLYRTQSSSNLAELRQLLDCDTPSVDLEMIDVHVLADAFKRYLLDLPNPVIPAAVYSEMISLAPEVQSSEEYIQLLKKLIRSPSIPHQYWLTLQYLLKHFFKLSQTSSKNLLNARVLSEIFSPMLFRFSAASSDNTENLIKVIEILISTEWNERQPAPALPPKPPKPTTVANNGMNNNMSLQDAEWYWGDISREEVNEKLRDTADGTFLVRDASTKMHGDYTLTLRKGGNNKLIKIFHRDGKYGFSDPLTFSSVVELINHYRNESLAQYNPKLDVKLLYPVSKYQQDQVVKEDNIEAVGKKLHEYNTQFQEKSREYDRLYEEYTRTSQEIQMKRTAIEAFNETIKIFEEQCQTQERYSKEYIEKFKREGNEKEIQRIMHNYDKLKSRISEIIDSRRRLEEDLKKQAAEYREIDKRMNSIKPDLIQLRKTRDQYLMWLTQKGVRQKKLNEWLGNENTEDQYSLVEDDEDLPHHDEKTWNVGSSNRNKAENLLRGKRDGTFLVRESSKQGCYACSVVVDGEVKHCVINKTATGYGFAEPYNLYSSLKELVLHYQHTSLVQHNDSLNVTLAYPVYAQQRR

CCn1c2ccccc2c2cc(C(=O)OC(C)C)nc(-c3cccc4ccccc34)c21 [Z86, isopropyl 9-ethyl-1-(naphthalen-1-yl)-9 H-pyrido[3,4-b] indole-3-carboxylate]
IC50: 4.28 µM
